The text below walks through data of patent publication US11726082B2, “Screening method of drug candidates for treating disease using interaction between calcium and phosphatidylinositol phosphate” (Gachon University of Industry—Academic Cooperation …, priority 2017, dated 2023).

Assay [1] has as its system human HepG2 cells. Put plainly: Intracellular calcium dynamics with Fura-2 AM in insulin resistance induced cells. It is filed as cell-based. The note with it: PA. On the procedure:
First, human HepG2 cells were cultured in DMEM (Dulbecco's Modified Eagle Medium) supplemented with 10% fetal bovine serum (FBS), 25 mM glucose, 2 mM L-glutamine, 100 U/Ml of penicillin and 100 μg/Ml of streptomycin. At this time, the culture was performed in a 37° C., 5% CO2 incubator. The cultured cells were distributed in a culture plate at the density of 5.0×10^5 cells/well, followed by further culture for overnight. Palmitic acid (PA) was added to the plate at the concentration of 0, 100, 300 or 500 μM, followed by reaction for 24 hours. Then, the concentration of calcium was investigated by using Fluo-3 AM according to the same conditions and procedures as described in Example 1, and the results are shown in FIG. 2A and FIG. 2B.
Intracellular calcium dynamics was confirmed in the fatty liver cell model constructed in vitro by inducing insulin resistance. At this time, the experiment was performed by the same manner under the same conditions as described in Example 3 except that Fura-2 AM was used instead of Fluo-3 AM.
For orientation: A change in cytosolic calcium serves as a functional read-out for many receptors and channels.

Assay [2] relates to human HepG2 cells. Briefly: Intracellular calcium concentration with Fluo-3 AM in insulin resistance induced cells. It is filed as cell-based. The settings on record: PA 0, 100, 300 or 500 μM, 24 hours. As to the method: First, male C57BL/6 mice at 8 weeks (Orient Bio, Korea) were raised in an animal facility of Lee Gil Ya Cancer and Diabetes Institute (Gachon University, Korea). Particularly, the mice were raised in a sterile chamber at the temperature of 23±1° C. with 12 hr/12 hr light/dark cycle, and free dietary environment. At this time, the mice were divided into the fasted group wherein the mice were fasted for 16 hours and the refed group wherein the mice were fasted for 16 hours and then fed for 4 hours. Each group was sub-divided into the high fat diet group (HFD) and the normal diet group (chow). The high fat diet group (HFD) mice were fed with diet containing 60% fat, while the normal diet group (chow) mice were fed with diet containing 10% fat. 8 weeks later, the mice were anesthetized and the liver was perfused by using buffer 1 (142 mM NaCl, 6.7 mM KCl, 10 mM HEPES and 2.5 mM EGTA, pH 7.4). Buffer 1 above was replaced with buffer 2 (0.5 mg/Mg […], 66.7 mM NaCl, 6.7 mM KCl, 10 mM HEPES and 4.8 mM CaCl, pH 7.6), and then the perfused liver was extracted. The extracted liver was washed and degraded by using Percoll cushion gradient. The degraded cells were suspended and cultured in Hepatozyme-SFM (Gibco-BRL USA) culture medium supplemented with 10% FBS and 1% antibiotics and antifungal agent. […] The mounted cells were analyzed using a fluorescence microscope (Zeiss Axioplan 2). […]

The test system of assay [3] is Akt protein. Briefly: Western blotting of Akt protein phosphorylation in insulin-treated HepG2 cells. It is filed as cell-based, human. The settings on record: PA 24 hours, 100 nM insulin 15 minutes, compared with insulin alone. On the procedure: First, male C57BL/6 mice at 8 weeks were divided into the fasted group wherein the mice were fasted for 16 hours and the refed group wherein the mice were fasted for 16 hours and then fed for 4 hours. Each group was sub-divided into the high fat diet group (HFD) and the normal diet group (chow). The liver cells were extracted from the raised mice by the same manner and under the same conditions as described in Example 1. The extracted liver cells were lysed in a lysis buffer containing phosphatase (Sigma-Aldrich, USA) and protease inhibitor (Sigma-Aldrich, USA). Proteins extracted from 2 to 3 mg of the liver tissue were homogenized by using a tissue homogenizer (TissuLyser, Qiagen, USA) for 1.5 minutes at a frequency of 1/30 sec. The homogenized lysate was centrifuged at 12,000 rpm for 15 minutes and the supernatant was obtained. The amount of the extracted protein was quantified by using a protein assay kit (Bio-Rad Laboratories, USA), and at this time BSA was used as a standard sample. 3 mg of the protein was mixed with 6× loading buffer, followed by electrophoresis using 10% SDS-PAGE gel. The electrophoresed protein was transferred onto a polyvinylidene fluoride (PVDF) membrane by using a transfer buffer at 4° C. with 120 V for 1.5 hours. The PVDF membrane on which the protein was transferred was pretreated with a blocking buffer prepared by mixing 5% skim milk with TBS buffer (TBS-T, pH 7.6) supplemented with Tween 20 for 30 minutes, and the membrane was washed with TBS-T. The washed membrane was added with the antibody against Akt (Cell Signaling Technology, USA), Akt(T308) (Cell Signaling Technology, USA), Akt(S473) (Cell Signaling Technology, USA), FOXO3A (Cell Signaling Technology, USA), FOXO3A(S253) (Cell Signaling Technology, USA), GSK-3β (Cell Signaling Technology, USA) or GSK-3β(S9) (Cell Signaling Technology, USA) protein as a primary antibody, followed by reaction at 4° C. for 12 hours. At this time, the antibody against actin (Santa Cruz Biotechnology, USA) protein was used for the control group. Upon completion of the reaction, the secondary antibody corresponding to the primary antibody was added thereto, followed by reaction at room temperature for 30 minutes. The PVDF membrane was washed with TBS-T buffer three times. The washed PVDF membrane was added with ECL solution (Thermo Scientific, USA), followed by image observation.
To investigate the changes in insulin sensitivity when insulin was added to the fatty liver cell model constructed in vitro, the phosphorylations of those proteins that were involved in insulin signal transduction were examined. PA was added to the human HepG2 cells prepared in Example 3, followed by reaction for 24 hours. […]
(In general: Immunoblotting shows a protein as a band on a membrane.)

In assay [4] the test system is Akt protein. Briefly: Western blot of Akt activity with C2-Akt fusion protein and PI3K co-treated with PTEN or SHIP2. The settings on record: cells with C2-Akt fusion protein and PI3K vectors co-treated with PTEN or SHIP2. Type of assay: cell-based. As to the method: Particularly, the experiment was performed by the same manner under the same conditions as described in Example 2 except that the vector expressing the C2-Akt fusion protein and the vector expressing PI3K protein were co-treated with PTEN or SHIP2 and the antibody against Akt (Cell Signaling Technology, USA), Akt(T308) (Cell Signaling Technology, USA), Akt(S473) (Cell Signaling Technology, USA), PI3K (Cell Signaling Technology, USA), PTEN (Cell Signaling Technology, USA) or SHIP2 (Upstate Biotechnology, USA) protein was used as the primary antibody.

Consider `CCCCCCCCCCCCCCCC(=O)O` [PA, Palmitic acid], for which the intracellular calcium concentration result in assay [1] is recorded as “significantly increased”. Further, the “concentration of calcium in the cytoplasm” value in assay [2] was “increased”. In addition, in assay [3], the Akt protein phosphorylation result was “significantly inhibited”.

B1: SHIP2: co-treated with the C2-Akt and PI3K vectors (protein, UniProt O15357 1-1258, looked up)
Phosphatidylinositol …: MASACGAPGPGGALGSQAPSWYHRDLSRAAAEELLARAGRDGSFLVRDSESVAGAFALCVLYQKHVHTYRILPDGEDFLAVQTSQGVPVRRFQTLGELIGLYAQPNQGLVCALLLPVEGEREPDPPDDRDASDGEDEKPPLPPRSGSTSISAPTGPSSPLPAPETPTAPAAESAPNGLSTVSHDYLKGSYGLDLEAVRGGASHLPHLTRTLATSCRRLHSEVDKVLSGLEILSKVFDQQSSPMVTRLLQQQNLPQTGEQELESLVLKLSVLKDFLSGIQKKALKALQDMSSTAPPAPQPSTRKAKTIPVQAFEVKLDVTLGDLTKIGKSQKFTLSVDVEGGRLVLLRRQRDSQEDWTTFTHDRIRQLIKSQRVQNKLGVVFEKEKDRTQRKDFIFVSARKREAFCQLLQLMKNKHSKQDEPDMISVFIGTWNMGSVPPPKNVTSWFTSKGLGKTLDEVTVTIPHDIYVFGTQENSVGDREWLDLLRGGLKELTDLDYRPIAMQSLWNIKVAVLVKPEHENRISHVSTSSVKTGIANTLGNKGAVGVSFMFNGTSFGFVNCHLTSGNEKTARRNQNYLDILRLLSLGDRQLNAFDISLRFTHLFWFGDLNYRLDMDIQEILNYISRKEFEPLLRVDQLNLEREKHKVFLRFSEEEISFPPTYRYERGSRDTYAWHKQKPTGVRTNVPSWCDRILWKSYPETHIICNSYGCTDDIVTSDHSPVFGTFEVGVTSQFISKKGLSKTSDQAYIEFESIEAIVKTASRTKFFIEFYSTCLEEYKKSFENDAQSSDNINFLKVQWSSRQLPTLKPILADIEYLQDQHLLLTVKSMDGYESYGECVVALKSMIGSTAQQFLTFLSHRGEETGNIRGSMKVRVPTERLGTRERLYEWISIDKDEAGAKSKAPSVSRGSQEPRSGSRKPAFTEASCPLSRLFEEPEKPPPTGRPPAPPRAAPREEPLTPRLKPEGAPEPEGVAAPPPKNSFNNPAYYVLEGVPHQLLPPEPPSPARAPVPSATKNKVAITVPAPQLGHHRHPRVGEGSSSDEESGGTLPPPDFPPPPLPDSAIFLPPSLDPLPGPVVRGRGGAEARGPPPPKAHPRPPLPPGPSPASTFLGEVASGDDRSCSVLQMAKTLSEVDYAPAGPARSALLPGPLELQPPRGLPSDYGRPLSFPPPRIRESIQEDLAEEAPCLQGGRASGLGEAGMSAWLRAIGLERYEEGLVHNGWDDLEFLSDITEEDLEEAGVQDPAHKRLLLDTLQLSK
For B1, in assay [4], the Akt protein activity entry is on record as “reduced”.
